Tested on: 323965-272-R-J2-PDC complex spheroid viability
Test: Anticancer human tumor 323965-272-R-J2-PDC patient-derived pancreatic carcinoma cell line growth inhibition [CLK]
Conditions: for IC50: curve of first compound; for viability, T/C: stronger effect = lower value
In short: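 Multi-cell-type spheroids combined patient-derived tumor cells with HUVEC endothelial cells and human mesenchymal stem cells. Paired agents were dosed in half-log steps down from about clinical Cmax, or from 10 microM where Cmax was unknown.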

[1] = second compound 0.0316 µM, first compound 0.0316 µM
[2] = second compound 0.0316 µM, first compound 0.1 µM
[3] = second compound 0.0316 µM, first compound 0.316 µM
[4] = second compound 0.0316 µM, first compound 1 µM
[5] = second compound 0.0316 µM, first compound 3.16 µM
[6] = second compound 0.0316 µM, first compound 10 µM
[7] = second compound 0.1 µM, first compound 0.0316 µM
[8] = second compound 0.1 µM, first compound 0.1 µM
[9] = second compound 0.1 µM, first compound 0.316 µM
[10] = second compound 0.1 µM, first compound 1 µM
[11] = second compound 0.1 µM, first compound 3.16 µM
[12] = second compound 0.1 µM, first compound 10 µM
[13] = second compound 0.316 µM, first compound 0.0316 µM
[14] = second compound 0.316 µM, first compound 0.1 µM
[15] = second compound 0.316 µM, first compound 0.316 µM
[16] = second compound 0.316 µM, first compound 1 µM
[17] = second compound 0.316 µM, first compound 3.16 µM
[18] = second compound 0.316 µM, first compound 10 µM
[19] = second compound 1 µM, first compound 0.0316 µM
[20] = second compound 1 µM, first compound 0.1 µM
[21] = second compound 1 µM, first compound 0.316 µM
[22] = second compound 1 µM, first compound 1 µM
[23] = second compound 1 µM, first compound 3.16 µM
[24] = second compound 1 µM, first compound 10 µM
[25] = second compound 3.16 µM, first compound 0.0316 µM
[26] = second compound 3.16 µM, first compound 0.1 µM
[27] = second compound 3.16 µM, first compound 0.316 µM
[28] = second compound 3.16 µM, first compound 1 µM
[29] = second compound 3.16 µM, first compound 3.16 µM
[30] = second compound 3.16 µM, first compound 10 µM
[31] = second compound 10 µM, first compound 0.0316 µM
[32] = second compound 10 µM, first compound 0.1 µM
[33] = second compound 10 µM, first compound 0.316 µM
[34] = second compound 10 µM, first compound 1 µM
[35] = second compound 10 µM, first compound 3.16 µM
[36] = second compound 10 µM, first compound 10 µM
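Note: spheroids exposed to agents for seven days before readout.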
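Throughout, for viability, T/C: percent of DMSO vehicle control wells so 100% = untreated growth.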

For CC(=O)O[C@H]1C(=O)[C@@]2(C)[C@H]([C@H](OC(=O)c3ccccc3)[C@]3(O)C[C@H](OC(=O)[C@H](O)[C@@H](NC(=O)c4ccccc4)c4ccccc4)C(C)=C1C3(C)C)[C@]1(OC(C)=O)CO[C@@H]1C[C@@H]2O + CN1CCN(c2cc(C(=O)Nc3cc4cc(-c5cnn(C)c5)ccc4cn3)ccn2)CC1, the IC50 (second compound 0.0316 µM) was < 31.6 nM, the IC50 (second compound 0.1 µM) was < 31.6 nM and the IC50 (second compound 0.316 µM) was < 31.6 nM. For the same compound, the IC50 (second compound 1 µM) was < 31.6 nM, the IC50 (second compound 3.16 µM) was < 31.6 nM and the IC50 (second compound 10 µM) was < 31.6 nM. It also gave a viability, T/C [1] of 33.2%, a viability, T/C [2] of 34.3% and a viability, T/C [3] of 31.7%. It also gave a viability, T/C [4] of 33%, a viability, T/C [5] of 34.8% and a viability, T/C [6] of 30.4%. For the same compound, the viability, T/C [7] was 28.3%, the viability, T/C [8] was 28.1% and the viability, T/C [9] was 24.7%. For the same compound, the viability, T/C [10] was 25.9%, the viability, T/C [11] was 26.7% and the viability, T/C [12] was 28.5%. It also gave a viability, T/C [13] of 19.8%, a viability, T/C [14] of 19.3% and a viability, T/C [15] of 19%. It also gave a viability, T/C [16] of 19.5%, a viability, T/C [17] of 17.2% and a viability, T/C [18] of 16.9%. For the same compound, the viability, T/C [19] was 3.79%, the viability, T/C [20] was 3.19% and the viability, T/C [21] was 3.35%. It also gave a viability, T/C [22] of 2.94%, a viability, T/C [23] of 3.34% and a viability, T/C [24] of 3.64%. For the same compound, the viability, T/C [25] was 3.67%, the viability, T/C [26] was 6.44% and the viability, T/C [27] was 4.39%. The viability, T/C [28] was 4.7%, the viability, T/C [29] was 3.88% and the viability, T/C [30] was 5.16%. For the same compound, the viability, T/C [31] was 4.53%, the viability, T/C [32] was 4.6% and the viability, T/C [33] was 4.22%. For the same compound, the viability, T/C [34] was 3.5%, the viability, T/C [35] was 3.95% and the viability, T/C [36] was 3.79%.
COc1ccc([C@@H](O)c2cc(-c3ncnc4cc(N5CCOCC5)ccc34)c(F)cc2Cl)nn1 + CN1CCN(c2cc(C(=O)Nc3cc4cc(-c5cnn(C)c5)ccc4cn3)ccn2)CC1 was tested, and the IC50 (second compound 0.0316 µM) was 7780 nM, the IC50 (second compound 0.1 µM) was 3340 nM and the IC50 (second compound 0.316 µM) was < 31.6 nM. The IC50 (second compound 1 µM) was < 31.6 nM, the IC50 (second compound 3.16 µM) was < 31.6 nM and the IC50 (second compound 10 µM) was < 31.6 nM. It also gave a viability, T/C [1] of 94.2%, a viability, T/C [2] of 100% and a viability, T/C [3] of 84%. The viability, T/C [4] was 89.7%, the viability, T/C [5] was 68.8% and the viability, T/C [6] was 44.5%. For the same compound, the viability, T/C [7] was 70.5%, the viability, T/C [8] was 80.3% and the viability, T/C [9] was 62.9%. The viability, T/C [10] was 61.8%, the viability, T/C [11] was 51% and the viability, T/C [12] was 37.8%. For the same compound, the viability, T/C [13] was 21.9%, the viability, T/C [14] was 23.9% and the viability, T/C [15] was 22.8%. The viability, T/C [16] was 21.1%, the viability, T/C [17] was 19.1% and the viability, T/C [18] was 21.1%. It also gave a viability, T/C [19] of 4.14%, a viability, T/C [20] of 3.13% and a viability, T/C [21] of 4.35%. It also gave a viability, T/C [22] of 2.76%, a viability, T/C [23] of 3.07% and a viability, T/C [24] of 4.48%. For the same compound, the viability, T/C [25] was 4.01%, the viability, T/C [26] was 4.31% and the viability, T/C [27] was 6.05%. The viability, T/C [28] was 4.02%, the viability, T/C [29] was 5.21% and the viability, T/C [30] was 4.73%. For the same compound, the viability, T/C [31] was 4.33%, the viability, T/C [32] was 5.55% and the viability, T/C [33] was 4.42%. The viability, T/C [34] was 5.56%, the viability, T/C [35] was 5.95% and the viability, T/C [36] was 6.95%.
